These results are taken from patent US7351692B2, “Method and composition for potentiating the antipyretic action of a nonopioid analgesic” (The Board of Trustees of the University of Illinois, priority 2002, dated 2008).

Non-standard residues stand in square brackets, D forms with d. Residues, ends and D or L forms follow the SMILES beside them.

The conditions of data set [1]: 4000 mg acetaminophen daily (n=20); placebo group 36.4%; p=0.014; cited from earlier work.
For data set [2] the following is noted: acetaminophen 3900 mg/d; afebrile patients with acute stroke; cited from earlier work.
For the next data set, the target named is T1, COX-2 (Homo sapiens, UniProt P35354).
T1 sequence (P35354 18-604): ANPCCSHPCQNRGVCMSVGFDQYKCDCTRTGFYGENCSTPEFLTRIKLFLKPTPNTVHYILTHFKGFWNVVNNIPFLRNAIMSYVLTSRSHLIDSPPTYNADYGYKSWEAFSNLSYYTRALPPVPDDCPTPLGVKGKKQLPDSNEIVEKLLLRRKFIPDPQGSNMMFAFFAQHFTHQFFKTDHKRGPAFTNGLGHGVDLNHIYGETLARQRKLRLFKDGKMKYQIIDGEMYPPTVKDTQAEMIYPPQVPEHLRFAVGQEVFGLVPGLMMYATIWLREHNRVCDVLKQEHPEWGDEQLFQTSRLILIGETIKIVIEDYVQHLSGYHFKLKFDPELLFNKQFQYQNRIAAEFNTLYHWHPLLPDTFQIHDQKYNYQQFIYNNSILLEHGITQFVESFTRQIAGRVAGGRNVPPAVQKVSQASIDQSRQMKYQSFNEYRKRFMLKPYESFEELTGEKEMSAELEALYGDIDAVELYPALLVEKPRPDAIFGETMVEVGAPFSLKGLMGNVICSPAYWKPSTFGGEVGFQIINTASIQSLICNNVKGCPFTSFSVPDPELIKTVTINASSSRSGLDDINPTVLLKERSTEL
As to conditions: in vitro; cited from earlier work.

A further data set deals with prostaglandin synthesis. As to conditions: in vivo; cited from earlier work.
In the next data set the target is COX-1 (Homo sapiens, UniProt P23219). The following applies: in vitro; cited from earlier work.
The nature of data set [3]: Measurement of tail-flick latency (thermal stimulation). The data set is classed as in vivo. As to conditions: mice; for effect on tail flick latency (analgesia), drug alone: acetaminophen 300 mg/kg s.c. or BQ123 3 μg i.c.v. The protocol: (§1) Male Swiss-Webster mice weighing 25 to 30 grams (Harlan, Indianapolis, Ind.) were housed four per cage in a room having a controlled ambient temperature (23±1° C.), humidity (50±10%), and twelve-hour light/dark cycle (6:00 a.m. to 6:00 p.m.). Food and water were available ad libitum. The experiments were-performed after the mice were acclimated to this environment for at least four days.
(§2) For i.c.v. administration of the endothelin antagonist BQ123, a mouse was grasped firmly by the loose skin behind the head and the skin was pulled taut. The site of injection was 2 mm from either side of the midline drawn through the anterior base of the ears. A 27 gauge sterile hypodermic needle attached to a 10 μL sterile Hamilton syringe was inserted perpendicularly through the skull into the brain, and vehicle (sterile saline) or BQ123 was delivered to the ventricle of the mouse brain (see T. J. Haley et al., Brit. J. Pharmacol., 12(12), (1957)). BQ123 (3 μg) or vehicle was administered i.c.v. and volume of drug injection was 5 μL. Vehicle or BQ123 pretreatment was performed 30 minutes prior to administration of acetaminophen (300 mg/kg s.c.).
(§3) The mice were divided into the following four groups (N=5 in each group): group I (P+V) received vehicle (V) (saline 5 μl, i.c.v.) and placebo (P) (vehicle 100 μl/kg, s.c.); group 2 (P+BQ) received BQ123 (BQ) (3 μg. i.c.v. in a volume of 5 μl of saline) and placebo (P) (vehicle 100 μl/kg, s.c.); group 3 (A+V) received vehicle (V) (saline 5 μl, i.c.v.) and acetaminophen (A) (300 mg/kg, s.c. in a volume of 100 μl/kg); and group 4 (A+BQ) received BQ123 (BQ) (3 μg, i.c.v. in a volume of 5 μl) and acetaminophen (A) (300 mg/kg, s.c. in a volume of 100 μl/kg). Vehicle or BQ123 pretreatment was performed 30 minutes prior to administration of acetaminophen (FIG. 1).
An analgesic response was determined by the tail flick method (C. Advocat et al., Brain Ref., 55(2), pp. 251-258 (1991); H. N. Bhargava, General Pharmacology, 28(1), pp. 61-64 (1997)). The tail flick latencies to thermal stimulation (focused light) were determined before and 30, 60, 90, 120, 180, 210, 240, 270, 300, and 360 minutes after injection of acetaminophen. The basal tail flick latency was about 2 seconds. A thermal stimulation cutoff time of 10 seconds was used to prevent damage to the tail of the animal. The analgesic response in each mouse was expressed as mean±SEM.

The conditions of data set [4]: daily dose of 6000 mg acetaminophen, suppositories, five days; cited from earlier work.
A short description of data set [5]: Measurement of body temperature (colonic temperature, telethermometer). The format is in vivo. As to conditions: for change in body temperature, drug alone: acetaminophen 300 mg/kg s.c. or BQ123 3 μg i.c.v., over 360 minutes. As for the experimental part:
as §1, §2, §3
The change in body temperature in response to acetaminophen (300 mg/kg) was determined (Bhargava, 1997). The colonic temperature of each mouse was recorded before and at various times after the injection of acetaminophen over a period of 360 minutes using a telethermometer. Body temperature data was expressed as mean±SEM.

Data set [6] can be described thus: Body weight of mice before drug and at end of experiment. The data set is classed as in vivo. The following applies: before drug vs 7 hours after acetaminophen, acetaminophen 300 mg/kg s.c., BQ123 3 μg i.c.v. As for the experimental part:
as §1
as §2, with “Vehicle or BQ123 pretreatment was performed 30 minutes prior to administration of acetaminophen (300 mg/kg s.c.).” left out
The body weight of all mice was measured, and no change in body weight between various groups of mice was observed (FIG. 2). Body weight was measured before administration of any drug and at the end of the experiment (i.e., 7 hours after the administration of acetaminophen).

The target of another data set is T2, ETA receptor (Rattus norvegicus, UniProt P26684).
T2 construct: host or cells: whole animal, central (intracerebroventricular) administration
T2 sequence (P26684 21-426): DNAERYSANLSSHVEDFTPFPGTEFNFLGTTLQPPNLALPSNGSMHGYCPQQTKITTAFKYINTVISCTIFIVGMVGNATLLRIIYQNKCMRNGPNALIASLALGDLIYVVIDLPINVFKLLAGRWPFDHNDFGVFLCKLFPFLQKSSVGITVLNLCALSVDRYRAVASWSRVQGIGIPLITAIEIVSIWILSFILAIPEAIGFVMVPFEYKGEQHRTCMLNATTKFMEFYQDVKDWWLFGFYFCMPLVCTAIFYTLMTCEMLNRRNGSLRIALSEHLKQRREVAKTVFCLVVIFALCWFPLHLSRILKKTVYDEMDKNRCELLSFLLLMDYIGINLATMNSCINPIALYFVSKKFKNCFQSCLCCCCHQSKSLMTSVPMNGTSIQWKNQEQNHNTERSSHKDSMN
As to conditions: cited from earlier work.

[7] abbreviates: BQ123 3 μg i.c.v. 30 minutes prior to acetaminophen 300 mg/kg s.c.

COX-1, sequence (P23219 24-599): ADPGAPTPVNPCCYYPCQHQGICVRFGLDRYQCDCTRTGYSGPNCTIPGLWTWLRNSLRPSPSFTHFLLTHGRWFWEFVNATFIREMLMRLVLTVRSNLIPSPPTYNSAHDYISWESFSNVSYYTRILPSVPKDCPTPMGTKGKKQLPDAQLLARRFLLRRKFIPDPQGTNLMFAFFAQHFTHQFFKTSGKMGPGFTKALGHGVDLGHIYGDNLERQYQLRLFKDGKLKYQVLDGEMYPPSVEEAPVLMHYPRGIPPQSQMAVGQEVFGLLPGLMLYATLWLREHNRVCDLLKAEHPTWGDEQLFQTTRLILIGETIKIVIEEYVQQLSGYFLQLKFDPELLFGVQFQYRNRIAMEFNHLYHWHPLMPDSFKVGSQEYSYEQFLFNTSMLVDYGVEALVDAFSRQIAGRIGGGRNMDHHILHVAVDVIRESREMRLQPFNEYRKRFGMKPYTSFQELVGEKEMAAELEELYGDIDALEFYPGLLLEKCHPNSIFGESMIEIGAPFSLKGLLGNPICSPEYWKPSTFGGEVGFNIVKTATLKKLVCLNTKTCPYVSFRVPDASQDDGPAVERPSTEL

In the case of `CC(=O)Nc1ccc(O)cc1` [acetaminophen], the “patients with fever of greater than 37.5° C.” value in data set [1] was 5.0%. In addition, the “core body temperature (CBT)” value in data set [2] is listed as “small reduction in CBT”. For the same compound, at COX-2, the “inhibition of COX-2” value is given as “weakly”. In the data set on prostaglandin synthesis, the “reduction of prostaglandin synthesis” value is “markedly”. For the same compound, at COX-1, the “inhibition of COX-1” value was “weakly”. Further, the “effect on tail flick latency (analgesia), drug alone” value in [3] (control about 2 seconds) is recorded as “produced significant analgesia”. Further, the “tail flick latency reached” value in data set [3] (acetaminophen 300 mg/kg s.c., cutoff time 10 seconds, control about 2 seconds) was “more than 10 seconds”. Moreover, the “duration of significant increase in tail flick latencies” value in [3] (after acetaminophen 300 mg/kg s.c.) was “three”. The “body temperature shortly after ischemic stroke” value in [4] is listed as “small, but potentially beneficial, decrease in body temperature”. Further, in data set [5] (mice), the “change in body temperature, drug alone” value is on record as “produced a significant hypothermia”. The “duration of hypothermia after acetaminophen” value in data set [5] (mice, acetaminophen 300 mg/kg s.c., vehicle pretreatment) is recorded as “about three”.
Turning to `CC(C)C[C@@H]1NC(=O)[C@@H](C(C)C)NC(=O)[C@@H]2CCCN2C(=O)[C@@H](CC(=O)O)NC(=O)[C@@H](Cc2c[nH]c3ccccc23)NC1=O` [BQ123, cyclo (-D-Trp-D-Asp-Pro-D-Val-Leu-)] (cyclo(L[dW][dD]P[dV])), the “acute effect on body weight” value in data set [6] is “neither acetaminophen nor BQ123 produced any acute effect on body weight”. In addition, the “effect of BQ123 on analgesic effect of acetaminophen” value in data set [3] (setting [7]) is listed as “not affected”. Further, in data set [3] (control about 2 seconds), the “effect on tail flick latency (analgesia), drug alone” value is recorded as “did not produce any significant effect on tail flick latency”. The “duration of hypothermic effect of acetaminophen in BQ123 pretreated mice” value in data set [5] (setting [7]) is recorded as “more than six”. Besides, the “effect of BQ123 on hypothermic effect of acetaminophen” value in data set [5] (mice, BQ123 3 μg i.c.v. 30 minutes prior to acetaminophen 300 mg/kg s.c.) is “significantly potentiated”. Moreover, the “change in body temperature, drug alone” value in [5] (mice) was “did not produce any significant change in body temperature”.
As to `Cc1noc(NS(=O)(=O)c2cccc3c(N(C)C)cccc23)c1C` [BMS-182874], the “effect on BP and HR per se” value on ETA receptor (administered in the lateral cerebral ventricle) was “did not affect BP and HR per se”. Also, the “effect on clonidine induced hypotension and bradycardia” value at ETA receptor (pretreatment) is recorded as “significantly blocked”.
